Laboratory results from patent US5785948A, “Metal chelate forming peptides and use thereof represented by three amino acid sequences” (Nihon Medi-Physics Co., Ltd., priority 1994, dated 1998).
Where no end group is shown, it is not given here.

Tests used:
Tumor cells HEp2 = assay: Imaging of tumor in HEp2 tumor-bearing nude mouse (gamma camera, organ radioactivity); type: in vivo, BALB/C nude mouse; settings: twenty minutes after injection
Experimental: Tumor cells HEp2 (5×10^6 cells, Human Epidermoid Carcinoma; ATCC No. CCL 23) were suspended in 1.0 ml of medium (Minimum essential medium (Eagle's) with Earle's BSS, 90% fetal bovine serum, 10%), and 100 μl of the suspension was subcutaneously injected to BALB/C nude mouse (6 weeks age) at the body side. […] Five and 20 minutes after the injection, the animal was imaged with a gamma camera.
Immediately after the imaging, the animal was sacrificed and examined for the distribution of the radioactivity in each organ using NaI single channel analyzer to determine a ratio of the radioactivity in tumor site to the radioactivity in muscle site (T/B ratio).

inflammation site = settings: S. aureus inflammation rat
Experimental: Staphylococcus aureus 10^8 cells were suspended in 1 ml of physiological saline, and 100 μl of the suspension was intramuscularly administered to SD rats weighing about 220 g at the right calf. […] Thirty and 120 minutes after the peptide was injected, the animal was imaged with a gamma camera. Regions of interest were selected from the obtained image to determine a ratio T/B of the radioactivity in inflammation site (T) to the radioactivity in normal site (B).

Substance	T/B ratio (radioactivity in tumor site to radioactivity in muscle site) (Tumor cells HEp2; i.v. tail vein, n=3)	Imaging of tumor site (gamma camera) (Tumor cells HEp2)	T/B ratio (radioactivity in inflammation site to radioactivity in normal site) (inflammation site; i.v. tail vein, regions of interest of image, n=6)	Imaging of inflammation site (gamma camera) (inflammation site; imaged 30 and 120 minutes after injection)
Tc-99m-KYCAREPPTRTNAYWGQG (also: Tc-99m label) [Tc-99m-labeled peptide containing KYC at the N-terminus, for tumor imaging]	4.50±0.71	clearly imaged	–	–
Tc-99m-KYCGGKTKPREQQYNSTYRVV-NH2	–	–	3.26±0.18	clearly imaged
